According to patent publication US10105357B2, “Indication of antibiotic drugs for preparation of cancer inhibition pharmaceutical composition” (LAUNX BIOMEDICAL CO., LTD., priority 2014, dated 2018):
Structures can show the parent of a compound that is named as a salt. Where two headings read alike, the source gives them in different places.

Legend:
Format in all cases: cell-based, human
[1] = test system: PC3 (p53−) (Prostate Adenocarcinoma); assay: Cell viability analysis, prostate cancer PC3; conditions: 72 h; for viability at 10 µM: Homo sapiens
[2] = test system: HI650 (Lung Adenocarcinoma); assay: Cell viability analysis, lung cancer HI650; conditions: for viability at 10 µM: Homo sapiens
[3] = test system: AGS (Gastric Adenocarcinoma); assay: Cell viability analysis, gastric cancer AGS; conditions: for viability at 10 µM: Homo sapiens
[4] = test system: A375 (Amelanotic Melanoma); assay: Cell viability analysis, skin cancer A375; conditions: for viability at 10 µM: Homo sapiens
[5] = test system: HeLa (Cervix Adenocarcinoma); assay: Cell viability analysis, cervical cancer HeLa; conditions: for viability at 10 µM: Homo sapiens, HeLa
[6] = test system: MKN-45 (Gastric Adenocarcinoma); assay: Cell viability analysis, gastric cancer MKN-45; conditions: for viability at 10 µM: Homo sapiens
[7] = test system: HL-60 (Acute Promyelocytic Leukemia); assay: Cell viability analysis, leukemia HL-60; conditions: for viability at 10 µM: Homo sapiens
[8] = test system: TSGH-8301 (Urinary Bladder Carcinoma); assay: Cell viability analysis, bladder cancer TSGH-8301; conditions: for viability at 10 µM: Homo sapiens
[9] = test system: LoVo (Colorectal Adenocarcinoma); assay: Cell viability analysis, colon cancer LoVo; conditions: for viability at 10 µM: Homo sapiens, LoVo
[10] = test system: HepG2 (Hepatocellular Carcinoma); assay: Cell viability analysis, hepatic cancer HepG2; conditions: for viability at 10 µM: Homo sapiens
[11] = test system: MCF7 (Mammary Gland, Adenocarcinoma); assay: Cell viability analysis, breast cancer MCF7; conditions: for viability at 10 µM: Homo sapiens
[12] = test system: A549 (Lung Adenocarcinoma); assay: Cell viability analysis, lung cancer A549; conditions: for viability at 10 µM: Homo sapiens
[13] = read-out: cell viability (survival rate), PC3, drug 10 μM, 72 hours, WST-1, OD450 nm
[14] = NCI-H1650, 72 h, read-out: cell viability (survival rate), H1650, drug 10 μM, 72 hours, WST-1, OD450 nm
[15] = 72 h, read-out: cell viability (survival rate), AGS, drug 10 μM, 72 hours, WST-1, OD450 nm
[16] = A-375, 72 h, read-out: cell viability (survival rate), A375, drug 10 μM, 72 hours, WST-1, OD450 nm
[17] = 72 h, read-out: cell viability (survival rate), HeLa, drug 10 μM, 72 hours, WST-1, OD450 nm
[18] = MKN-45, 72 h, read-out: cell viability (survival rate), MKN-45, drug 10 μM, 72 hours, WST-1, OD450 nm
[19] = HL-60, 72 h, read-out: cell viability (survival rate), HL-60, drug 10 μM, 72 hours, WST-1, OD450 nm
[20] = 72 h, read-out: cell viability (survival rate), TSGH, drug 10 μM, 72 hours, WST-1, OD450 nm
[21] = 72 h, read-out: cell viability (survival rate), LoVo, drug 10 μM, 72 hours, WST-1, OD450 nm
[22] = HepG2, 72 h, read-out: cell viability (survival rate), HepG2, drug 10 μM, 72 hours, WST-1, OD450 nm
[23] = MCF7, 72 h, read-out: cell viability (survival rate), MCF7, drug 10 μM, 72 hours, WST-1, OD450 nm
[24] = A549, 72 h, read-out: cell viability (survival rate), A549, drug 10 μM, 72 hours, WST-1, OD450 nm
[25] = drug 10 μM, 72 hours, WST-1, OD450 nm, read-out: cell viability (survival rate), PC3
[26] = NCI-H1650, 72 h, drug 10 μM, 72 hours, WST-1, OD450 nm, read-out: cell viability (survival rate), H1650
[27] = 72 h, drug 10 μM, 72 hours, WST-1, OD450 nm, read-out: cell viability (survival rate), AGS
[28] = A-375, 72 h, drug 10 μM, 72 hours, WST-1, OD450 nm, read-out: cell viability (survival rate), A375
[29] = 72 h, drug 10 μM, 72 hours, WST-1, OD450 nm, read-out: cell viability (survival rate), HeLa
[30] = MKN-45, 72 h, drug 10 μM, 72 hours, WST-1, OD450 nm, read-out: cell viability (survival rate), MKN-45
[31] = HL-60, 72 h, drug 10 μM, 72 hours, WST-1, OD450 nm, read-out: cell viability (survival rate), HL-60
[32] = 72 h, drug 10 μM, 72 hours, WST-1, OD450 nm, read-out: cell viability (survival rate), TSGH
[33] = HepG2, 72 h, drug 10 μM, 72 hours, WST-1, OD450 nm, read-out: cell viability (survival rate), HepG2
[34] = MCF7, 72 h, drug 10 μM, 72 hours, WST-1, OD450 nm, read-out: cell viability (survival rate), MCF7
[35] = A549, 72 h, drug 10 μM, 72 hours, WST-1, OD450 nm, read-out: cell viability (survival rate), A549

| Compound | viability at 10 µM [1, 13] | viability at 10 µM [2, 14] | viability at 10 µM [3, 15] | viability at 10 µM [4, 16] | viability at 10 µM [5, 17] | viability at 10 µM [6, 18] | viability at 10 µM [7, 19] | viability at 10 µM [8, 20] | viability at 10 µM [9, 21] | viability at 10 µM [10, 22] | viability at 10 µM [11, 23] | viability at 10 µM [12, 24] | also measured |
| --- | --- | --- | --- | --- | --- | --- | --- | --- | --- | --- | --- | --- | --- |
| C[C@H]1COc2c(N3CCN(C)CC3)c(F)cc3c(=O)c(C(=O)O)cn1c23 [Levofloxacin (Levaquin), Levofloxacin] | 29.6% | 64.9% | 51.6% | 39.3% | 50.8% | 44.5% | 93% | 41.8% | 62.6% | 88.4% | 43.9% | 36.7% |  |
| Cc1ccccc1C(OCCN(C)C)c1ccccc1 (stereo not drawn) [Orphenadrine citrate (Norflex), Orphenadrine citrate] | 41.6% | 99.6% | 82.9% | 89.2% | 67.9% | 102% | 92.9% | 53.4% | 45.6% | 97.8% | 35.9% | 21.8% |  |
| CN(C)[C@@H]1C(O)=C(C(N)=O)C(=O)[C@@]2(O)C(O)=C3C(=O)c4c(O)cccc4[C@@](C)(O)[C@H]3[C@H](O)[C@@H]12 [Oxytetracycline (Terramycin), Oxytetracycline] |  |  |  |  |  |  |  |  |  |  |  |  | cell viability (survival rate), PC3 ([1]; human, 10 µM): 70.8; cell viability (survival rate), H1650 ([2]; human, 72 h, 10 µM): 70.1; cell viability (survival rate), AGS ([3]; human, 72 h, 10 µM): 61.9; cell viability (survival rate), A375 ([4]; human, 72 h, 10 µM): 51.2; cell viability (survival rate), HeLa ([5]; human, 72 h, 10 µM): 51.2; cell viability (survival rate), MKN-45 ([6]; human, 72 h, 10 µM): 56.7; cell viability (survival rate), HL-60 ([7]; human, 72 h, 10 µM): 97.9; cell viability (survival rate), TSGH ([8]; human, 72 h, 10 µM): 73.8; cell viability (survival rate), LoVo ([9]; human, 72 h, 10 µM): 86.6; cell viability (survival rate), HepG2 ([10]; human, 72 h, 10 µM): 88.4; cell viability (survival rate), MCF7 ([11]; human, 72 h, 10 µM): 38.9; cell viability (survival rate), A549 ([12]; human, 72 h, 10 µM): 42.3 |
| Nc1ccn([C@@H]2CS[C@H](CO)O2)c(=O)n1 [Lamivudine (Epivir), Lamivudine] | 110% | 54.1% | 44.7% | 95.8% | 86.4% | 47.7% | 119% | 71.1% | 71.3% | 108% | 83.2% | 75.2% |  |
| C=CC1=C(C(=O)O)N2C(=O)[C@@H](NC(=O)/C(=N\O)c3csc(N)n3)[C@H]2SC1 [Cefdinir (Omnicef), Cefdinir] | 135% | 93.6% | 79.1% | 92.5% | 86.4% | 70.5% | 104% | 35.6% | 111% | 106% | 55.1% | 97% |  |
| CCCc1nc(C)c2c(=O)[nH]c(-c3cc(S(=O)(=O)N4CCN(CC)CC4)ccc3OCC)nn12 [Vardenafil (Vivanza), Vardenafil] |  | 67.2% | 86.5% | 73.2% | 61.7% | 68.2% | 127% | 57.8% | 106% | 81.8% | 117% | 96.5% |  |
| CN(CCOc1ccc(CC2SC(=O)NC2=O)cc1)c1ccccn1 (stereo not drawn) [Rosiglitazone maleate] |  |  |  |  |  |  |  |  | 93.5% |  |  |  | viability at 10 µM [1, 25]: 121%; viability at 10 µM [2, 26]: 87.7%; viability at 10 µM [3, 27]: 113%; viability at 10 µM [4, 28]: 70.3%; viability at 10 µM [5, 29]: 83.3%; viability at 10 µM [6, 30]: 73.7%; viability at 10 µM [7, 31]: 109%; viability at 10 µM [8, 32]: 85.2%; viability at 10 µM [10, 33]: 95.1%; viability at 10 µM [11, 34]: 114%; viability at 10 µM [12, 35]: 79.1% |
| CC(=O)[C@@]1(O)CC[C@H]2[C@@H]3CCC4=CC(=O)CCC4=C3[C@@H](c3ccc(N(C)C)cc3)C[C@@]21C [Ulipristal] |  |  |  |  |  |  |  |  | 67.8% |  |  |  | viability at 10 µM [1, 25]: 49.3%; viability at 10 µM [2, 26]: 40.3%; viability at 10 µM [3, 27]: 55.4%; viability at 10 µM [4, 28]: 48.2%; viability at 10 µM [5, 29]: 72.4%; viability at 10 µM [6, 30]: 36.1%; viability at 10 µM [7, 31]: 93.8%; viability at 10 µM [8, 32]: 55.8%; viability at 10 µM [10, 33]: 69%; viability at 10 µM [11, 34]: 65.4%; viability at 10 µM [12, 35]: 59.9% |
| Nc1nccs1 [Aminothiazole] | 93.8% | 68.7% | 62.3% | 78.4% | 65.7% |  | 121% | 86% | 86.4% | 90.4% | 108% | 56.1% |  |
| O=C([O-])[C@H](O)[C@@H](O)[C@H](O)[C@H](O)CO.[Na+] [Sodium Gluconate] |  |  |  |  |  |  |  |  |  |  |  |  | viability at 10 µM ([2]; NCI-H1650, drug 10 μM, 72 hours, WST-1, OD450 nm, read-out: cell viability (survival rate), H1650): 94.6%; viability at 10 µM ([3]; drug 10 μM, 72 hours, WST-1, OD450 nm, read-out: cell viability (survival rate), AGS): 90.8%; viability at 10 µM ([4]; A-375, drug 10 μM, 72 hours, WST-1, OD450 nm, read-out: cell viability (survival rate), A375): 116%; viability at 10 µM ([5]; drug 10 μM, 72 hours, WST-1, OD450 nm, read-out: cell viability (survival rate), HeLa): 73%; viability at 10 µM ([6]; MKN-45, drug 10 μM, 72 hours, WST-1, OD450 nm, read-out: cell viability (survival rate), MKN-45): 93%; viability at 10 µM ([7]; HL-60, drug 10 μM, 72 hours, WST-1, OD450 nm, read-out: cell viability (survival rate), HL-60): 91.2%; viability at 10 µM ([8]; drug 10 μM, 72 hours, WST-1, OD450 nm, read-out: cell viability (survival rate), TSGH): 97.4%; viability at 10 µM ([9]; drug 10 μM, 72 hours, WST-1, OD450 nm, read-out: cell viability (survival rate), LoVo): 100%; viability at 10 µM ([10]; HepG2, drug 10 μM, 72 hours, WST-1, OD450 nm, read-out: cell viability (survival rate), HepG2): 95.3%; viability at 10 µM ([11]; MCF7, drug 10 μM, 72 hours, WST-1, OD450 nm, read-out: cell viability (survival rate), MCF7): 94.7%; viability at 10 µM ([12]; A549, drug 10 μM, 72 hours, WST-1, OD450 nm, read-out: cell viability (survival rate), A549): 91.9% |
| Fc1ccc([C@@H]2CCNC[C@H]2COc2ccc3c(c2)OCO3)cc1 [paroxetine] |  |  |  |  |  |  |  |  |  |  |  |  | viability at 10 µM ([8]; 72 h, read-out: The results of antibiotic drug inhibiting cancer cell lines (cell viability analysis), TSGH-8301, TSGH-8301, repeated experiment): 38.4% |
| Cc1cc(=O)[nH]c(=S)[nH]1 [Methylthiouracil] |  |  |  |  |  |  |  |  | 98.9% |  |  |  | viability at 10 µM [1, 25]: 151%; viability at 10 µM [2, 26]: 90.2%; viability at 10 µM [3, 27]: 84.8%; viability at 10 µM [4, 28]: 72.1%; viability at 10 µM [5, 29]: 88.3%; viability at 10 µM [6, 30]: 79.9%; viability at 10 µM [7, 31]: 106%; viability at 10 µM [8, 32]: 83.6%; viability at 10 µM [10, 33]: 106%; viability at 10 µM [12, 35]: 164% |
